Series [1] relates to PANC-1, PANC 02.13, MIA PaCa-2, Capan-1, KLM, AsPC-1 and BXPC3 cells. Briefly: Cytotoxicity/cell viability with romidepsin, DMPatA and their combination in seven PDAC cell lines (FIG. 1A). Particulars: romidepsin 15 nM for 6 h, alone or with DMPatA 2 nM. The class given is cell-based. As for the experimental part:
FIG. 1A compares cytotoxicity graphs of the effect of romidepsin alone at increasing doses (circles), DMPatA alone at 2 nM (diamond), and combination of romidepsin with DMPatA at 2 nM (triangles) on PANC-1, PANC 02.13, MIA PaCa-2, Capan-1, KLM, AsPC-1 and BXPC3 cells. Romidepsin treatment in both the single agent and the combination was for 6 hours after which it was washed out and medium replaced with fresh medium without (single agent romidepsin) or with DMPatA for an additional 42 hours (combination).
This schedule of romidepsin treatment features a 6-hour exposure followed by washout of romidepsin and replacement with fresh media, whereas most investigators expose cells to 1-2 nM over 48-96 hours of continuous romidepsin. […] Thus a 6-hour exposure is more clinically relevant. Most cell types are susceptible to romidepsin over non-clinically relevant long treatment durations.
It was initially hypothesized that the HDAC-inhibitor romidepsin could cause synergistic cell death when combined with DMPatA via a reduction in MYC levels previously seen with both eIF4A inhibitors and with romidepsin in KRAS cells. […]
Cell viability was determined using CellTiter-Glo® reagent (Promega, #G7570) following the manufacturer's instructions. […] After incubation, assay reagent was added, and luminescent signals were quantified using a microplate reader (PHERAstar® FS, BMG LABTECH, Ortenberg, Germany). […]

The test system of a further series is p-RPA. Kind of series: Immunoblot of phospho-RPA2 (FIG. 11A). The format is cell-based. Particulars: total 24 h (romidepsin 6 h + 18 h with/without 2 nM DMPatA). As for the experimental part:
FIG. 11A compares immunoblots of p-RPA and p-CHK1 protein levels from whole cell extracts following treatment with the combination and romidepsin for a total of 24 h (i.e., romidepsin treatment was for 6 h followed by 18-hour incubation with 2 nM DMPatA (combo) or without (Romi alone)).
Having observed R-loop accumulation following treatment with the combination, it was hypothesized that hypertranscription, persistent hyperacetylation, and R-loop accumulation could increase the incidence of transcription replication conflicts, genome instability, and DNA damage and contribute to cell death. […]
Western blotting was carried out as previously described (Luchenko V L, Litman T, Chakraborty A R, et al. 65. Membranes were probed with primary antibodies: Phospho-Histone H2A.X (Ser139) (1:1000, Millipore Sigma #05-636), GAPDH (1:10000, Abcam #ab8245), c-Myc (1:1000, Abcam #ab32072), β-Actin (1:1000, Cell Signaling Technology (CST), #8457), Phospho-RPA32/RPA2 (Ser33) (1:1000, Cell Signaling Technology #10148), Phospho-Chk1 (Ser345) (1:1000, CST #2341), and secondary antibodies IRDye® 680RD Goat anti-Mouse and IRDye® 800CW Goat anti-Rabbit (both from LI-COR Biosciences). Signal quantification was performed using the Odyssey CLx imaging system (LI-COR Biosciences), capturing various exposures within the linear range with ImageStudio software V3.1 (LI-COR Biosciences).
A general note: Immunoblotting shows a protein as a band on a membrane.

Series [2] can be described thus: Body weight of xenograft mice (FIG. 2B). The format is in vivo, athymic nude mice. Conditions: IP; romidepsin 0.75 mg/kg, DMPatA 0.075 mg/kg. An excerpt:
FIGS. 2A and 2B illustrate the results of a MIA PaCa-2 xenograft model of PDAC in male athymic nude mice. FIG. 2A compares tumor growth (mm^3) in mice treated with the indicated concentrations of combination, romidepsin and DMPatA using IP route and vehicles described in the materials and methods section below. FIG. 2B compares body weight (g) of mice treated with the combination and single agents following treatment. FIGS. 2C and 2D compare quantification of H3K9ac and c-MYC antibodies. Frozen sections from MIA PaCa-2 xenograft tumor tissues were subjected to immunohistochemical analysis using antibodies against H3K9ac, and c-MYC. Fluorescence images were captured using fluorescent microscopy and the fluorescent signal from H3K9ac and c-MYC antibodies were quantified. To quantify fluorescence intensity at least 500 cells per condition were measured for each antibody at 40× magnification. The median of the signal intensity is shown. Statistical significance was determined by one-way ANOVA using Tukey multiple comparisons test, ****p value<0.0001.
Animal studies were performed according to Institutional Animal Care and Use Committee (IACUC) protocol number AC-AABD2601. Following the establishment of initial dose levels for individual drugs, efficacy of the combination and single agents in a MIA PaCa-2 xenograft model was assessed at a tolerable dose and schedule. […]

Regarding `C/C=C1\NC(=O)[C@H]2CSSCC/C=C/[C@H](CC(=O)N[C@H](C(C)C)C(=O)N2)OC(=O)[C@H](C(C)C)NC1=O` [romidepsin], the “toxicity / lethality at low concentration” value in series [1] is listed as “minimal to no toxicity”. Also, the phospho-RPA2 entry in the series on p-RPA is reported as “Accumulation”. Moreover, the “body weight vs vehicle” value in series [2] is listed as “neither the single agent nor the combination treatments had a significant impact on weight”.
